Data published in PMC8800111 (The Journal of Biological Chemistry, 2021).
Like-named read-outs stand apart in the source and are kept apart here.

What was measured:
Assay type in all cases: cell-based
[1] = biological target: proteins of U3A human fibrosarcoma cells (4462 proteins detected) (Homo sapiens, UniProt Q9H9F9); details: protein ACTR5; U3A cells
[2] = biological target: proteins of U3A human fibrosarcoma cells (4462 proteins detected) (Homo sapiens, UniProt Q9GZV4); details: protein EIF5A2; U3A, 10 μM, 2 h
[3] = biological target: proteins of U3A human fibrosarcoma cells (4462 proteins detected) (Homo sapiens, UniProt Q8N9N8); details: protein EIF1AD; U3A, 10 μM, 2 h
[4] = biological target: proteins of U3A human fibrosarcoma cells (4462 proteins detected) (Homo sapiens, UniProt Q15366); details: protein PCBP2; U3A cells
[5] = biological target: proteins of U3A human fibrosarcoma cells (4462 proteins detected) (Homo sapiens, UniProt Q13596); details: protein SNX1; U3A cells
[6] = biological target: proteins of U3A human fibrosarcoma cells (4462 proteins detected) (Homo sapiens, UniProt Q9NQG5); details: protein RPRD1B; soluble abundance after heat, U3A cells
[7] = biological target: proteins of U3A human fibrosarcoma cells (4462 proteins detected) (Homo sapiens, UniProt P17813); details: protein ENG; U3A cells
[8] = biological target: proteins of U3A human fibrosarcoma cells (4462 proteins detected) (Homo sapiens, UniProt Q9Y2H0); details: protein DLGAP4, U3A cells
[9] = biological target: proteins of U3A human fibrosarcoma cells (4462 proteins detected) (Homo sapiens, UniProt Q9UHN1); details: protein POLG2; soluble abundance after heat, U3A cells
[10] = biological target: proteins of U3A human fibrosarcoma cells (4462 proteins detected) (Homo sapiens, UniProt Q9UKV5); details: protein AMFR; U3A cells
[11] = biological target: proteins of U3A human fibrosarcoma cells (4462 proteins detected) (Homo sapiens, UniProt Q8TDD1); details: protein DDX54; U3A, 10 μM, 2 h
[12] = biological target: proteins of U3A human fibrosarcoma cells (4462 proteins detected) (Homo sapiens, UniProt Q16666); details: protein IFI16; soluble abundance after heat, U3A cells
[13] = biological target: proteins of U3A human fibrosarcoma cells (4462 proteins detected) (Homo sapiens, UniProt Q9Y385); details: protein UBE2J1; U3A cells
[14] = biological target: proteins of U3A human fibrosarcoma cells (4462 proteins detected) (Homo sapiens, UniProt Q96PK6); details: protein RBM14; soluble abundance after heat, U3A cells
[15] = biological target: proteins of U3A human fibrosarcoma cells (4462 proteins detected) (Homo sapiens, UniProt Q5JSH3); details: protein WDR44, U3A cells
[16] = biological target: proteins of U3A human fibrosarcoma cells (4462 proteins detected) (Homo sapiens, UniProt Q9HC44); details: protein GPBP1L1; soluble abundance after heat, U3A cells
[17] = biological target: proteins of U3A human fibrosarcoma cells (4462 proteins detected) (Homo sapiens, UniProt Q9UIV1); details: protein CNOT7; U3A, 10 μM, 2 h
[18] = biological target: proteins of U3A human fibrosarcoma cells (4462 proteins detected) (Homo sapiens, UniProt Q9NXR1); details: protein NDE1, U3A cells
[19] = biological target: proteins of U3A human fibrosarcoma cells (4462 proteins detected) (Homo sapiens, UniProt Q92692); details: protein PVRL2; U3A cells
[20] = biological target: proteins of U3A human fibrosarcoma cells (4462 proteins detected) (Homo sapiens, UniProt P40123); details: protein CAP2; U3A cells
[21] = biological target: proteins of U3A human fibrosarcoma cells (4462 proteins detected) (Homo sapiens, UniProt P57768); details: protein SNX16; U3A, 10 μM, 2 h
[22] = biological target: proteins of U3A human fibrosarcoma cells (4462 proteins detected) (Homo sapiens, UniProt P20839); details: protein IMPDH1, U3A cells
[23] = biological target: proteins of U3A human fibrosarcoma cells (4462 proteins detected) (Homo sapiens, UniProt P17844); details: protein DDX5; U3A cells
[24] = biological target: proteins of U3A human fibrosarcoma cells (4462 proteins detected) (Homo sapiens, UniProt Q9UJ68); details: protein MSRA, U3A cells
[25] = biological target: proteins of U3A human fibrosarcoma cells (4462 proteins detected) (Homo sapiens, UniProt O75909); details: protein CCNK; U3A cells
[26] = tested on: proteins of U3A human fibrosarcoma cells (4462 proteins detected)
[27] = biological target: proteins of U3A human fibrosarcoma cells (4462 proteins detected) (Homo sapiens, UniProt P25787); details: protein PSMA2, U3A cells
proteins of U3A human fibrosarcoma cells (4462 proteins detected) (Homo sapiens, UniProt P25787), sequence (P25787 whole entry): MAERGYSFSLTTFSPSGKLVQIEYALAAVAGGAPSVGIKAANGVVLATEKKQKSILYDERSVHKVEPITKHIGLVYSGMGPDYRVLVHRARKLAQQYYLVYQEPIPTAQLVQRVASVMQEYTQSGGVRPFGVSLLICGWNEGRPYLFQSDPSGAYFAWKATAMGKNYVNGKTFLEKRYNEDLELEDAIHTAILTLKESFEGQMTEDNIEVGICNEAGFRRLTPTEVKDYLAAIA

proteins of U3A human fibrosarcoma cells (4462 proteins detected) (Homo sapiens, UniProt Q9Y385), sequence (Q9Y385 whole entry): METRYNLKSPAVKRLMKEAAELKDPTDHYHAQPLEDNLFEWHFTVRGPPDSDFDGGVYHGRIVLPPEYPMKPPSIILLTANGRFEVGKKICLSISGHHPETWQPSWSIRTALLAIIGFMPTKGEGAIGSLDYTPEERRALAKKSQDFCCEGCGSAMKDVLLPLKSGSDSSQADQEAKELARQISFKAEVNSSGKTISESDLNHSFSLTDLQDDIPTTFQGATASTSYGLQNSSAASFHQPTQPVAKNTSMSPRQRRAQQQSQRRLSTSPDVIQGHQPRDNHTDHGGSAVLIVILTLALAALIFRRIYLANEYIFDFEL
proteins of U3A human fibrosarcoma cells (4462 proteins detected) (Homo sapiens, UniProt Q9NXR1), sequence (Q9NXR1 whole entry): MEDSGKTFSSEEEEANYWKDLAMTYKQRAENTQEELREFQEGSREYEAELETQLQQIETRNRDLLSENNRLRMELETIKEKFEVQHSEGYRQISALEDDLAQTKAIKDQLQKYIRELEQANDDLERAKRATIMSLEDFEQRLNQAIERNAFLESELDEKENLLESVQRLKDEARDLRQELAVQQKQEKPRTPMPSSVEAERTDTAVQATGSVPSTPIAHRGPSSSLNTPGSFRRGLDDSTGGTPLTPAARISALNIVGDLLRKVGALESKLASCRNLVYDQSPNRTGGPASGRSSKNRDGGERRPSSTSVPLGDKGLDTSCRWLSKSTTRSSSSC
proteins of U3A human fibrosarcoma cells (4462 proteins detected) (Homo sapiens, UniProt Q16666), sequence (Q16666 whole entry): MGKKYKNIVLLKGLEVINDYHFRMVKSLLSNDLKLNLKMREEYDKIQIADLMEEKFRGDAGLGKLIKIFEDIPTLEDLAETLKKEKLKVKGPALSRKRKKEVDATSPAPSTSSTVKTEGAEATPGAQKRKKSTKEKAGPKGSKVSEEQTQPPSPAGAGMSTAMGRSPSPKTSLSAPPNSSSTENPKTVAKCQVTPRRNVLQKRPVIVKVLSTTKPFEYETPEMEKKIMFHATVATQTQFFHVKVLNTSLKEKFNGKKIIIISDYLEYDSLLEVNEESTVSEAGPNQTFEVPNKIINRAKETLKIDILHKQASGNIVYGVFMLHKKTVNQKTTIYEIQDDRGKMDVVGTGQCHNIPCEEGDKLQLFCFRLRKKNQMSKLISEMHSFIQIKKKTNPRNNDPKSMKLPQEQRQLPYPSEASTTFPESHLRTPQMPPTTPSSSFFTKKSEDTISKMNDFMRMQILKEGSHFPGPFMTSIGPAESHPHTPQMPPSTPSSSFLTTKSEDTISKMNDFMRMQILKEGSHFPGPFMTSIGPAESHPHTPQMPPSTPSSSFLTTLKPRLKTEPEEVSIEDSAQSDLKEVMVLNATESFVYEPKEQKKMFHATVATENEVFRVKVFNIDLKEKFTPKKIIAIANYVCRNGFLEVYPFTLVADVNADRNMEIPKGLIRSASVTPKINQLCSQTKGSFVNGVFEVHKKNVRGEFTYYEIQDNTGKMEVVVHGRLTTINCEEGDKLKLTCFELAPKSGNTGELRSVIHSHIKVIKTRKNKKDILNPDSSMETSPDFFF
proteins of U3A human fibrosarcoma cells (4462 proteins detected) (Homo sapiens, UniProt Q96PK6), sequence (Q96PK6 whole entry): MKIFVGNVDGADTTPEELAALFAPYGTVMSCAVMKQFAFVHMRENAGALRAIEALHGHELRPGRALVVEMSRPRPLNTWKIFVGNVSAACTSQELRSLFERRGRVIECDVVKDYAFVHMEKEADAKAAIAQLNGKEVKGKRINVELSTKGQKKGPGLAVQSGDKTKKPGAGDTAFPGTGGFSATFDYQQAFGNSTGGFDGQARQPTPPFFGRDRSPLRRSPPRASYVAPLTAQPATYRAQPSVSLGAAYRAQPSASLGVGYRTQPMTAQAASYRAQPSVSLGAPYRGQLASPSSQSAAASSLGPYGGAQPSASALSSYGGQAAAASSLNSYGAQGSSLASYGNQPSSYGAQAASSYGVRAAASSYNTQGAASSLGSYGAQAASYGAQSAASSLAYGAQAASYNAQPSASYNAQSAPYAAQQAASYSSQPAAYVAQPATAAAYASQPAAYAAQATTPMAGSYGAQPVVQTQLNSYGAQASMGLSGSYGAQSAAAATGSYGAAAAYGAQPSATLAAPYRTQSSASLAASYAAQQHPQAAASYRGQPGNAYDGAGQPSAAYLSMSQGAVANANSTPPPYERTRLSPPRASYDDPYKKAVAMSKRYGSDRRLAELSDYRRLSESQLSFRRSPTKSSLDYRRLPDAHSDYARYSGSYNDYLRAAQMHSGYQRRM
proteins of U3A human fibrosarcoma cells (4462 proteins detected) (Homo sapiens, UniProt P40123), sequence (P40123 whole entry): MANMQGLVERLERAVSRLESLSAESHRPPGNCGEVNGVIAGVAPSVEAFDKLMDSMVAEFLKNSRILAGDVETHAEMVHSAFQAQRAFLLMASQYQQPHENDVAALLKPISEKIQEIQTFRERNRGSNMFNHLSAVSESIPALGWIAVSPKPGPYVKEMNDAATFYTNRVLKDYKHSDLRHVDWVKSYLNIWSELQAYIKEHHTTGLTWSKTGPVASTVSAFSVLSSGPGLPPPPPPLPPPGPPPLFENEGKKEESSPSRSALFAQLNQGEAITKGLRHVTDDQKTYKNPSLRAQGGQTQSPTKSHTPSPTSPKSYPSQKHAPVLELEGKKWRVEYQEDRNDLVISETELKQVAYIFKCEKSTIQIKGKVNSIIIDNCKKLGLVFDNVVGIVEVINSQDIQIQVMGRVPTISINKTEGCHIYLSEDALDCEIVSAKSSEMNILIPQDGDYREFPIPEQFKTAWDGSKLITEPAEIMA
proteins of U3A human fibrosarcoma cells (4462 proteins detected) (Homo sapiens, UniProt P17844), sequence (P17844 whole entry): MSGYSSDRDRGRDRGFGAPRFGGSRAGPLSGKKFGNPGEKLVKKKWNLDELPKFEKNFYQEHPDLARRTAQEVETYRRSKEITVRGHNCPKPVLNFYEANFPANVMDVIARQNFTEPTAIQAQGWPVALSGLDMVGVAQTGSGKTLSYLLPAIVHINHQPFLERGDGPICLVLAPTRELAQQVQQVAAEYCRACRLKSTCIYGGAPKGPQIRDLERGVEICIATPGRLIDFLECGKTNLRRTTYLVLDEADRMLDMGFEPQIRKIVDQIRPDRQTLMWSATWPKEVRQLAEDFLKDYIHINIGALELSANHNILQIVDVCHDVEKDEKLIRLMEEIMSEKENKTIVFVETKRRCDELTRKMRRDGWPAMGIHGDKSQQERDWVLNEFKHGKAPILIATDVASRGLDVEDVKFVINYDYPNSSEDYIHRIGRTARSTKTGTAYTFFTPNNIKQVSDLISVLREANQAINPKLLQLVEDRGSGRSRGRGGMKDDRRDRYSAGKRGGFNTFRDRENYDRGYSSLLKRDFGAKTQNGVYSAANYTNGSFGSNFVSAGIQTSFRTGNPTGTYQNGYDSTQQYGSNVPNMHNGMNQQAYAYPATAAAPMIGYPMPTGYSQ
proteins of U3A human fibrosarcoma cells (4462 proteins detected) (Homo sapiens, UniProt Q8N9N8), sequence (Q8N9N8 whole entry): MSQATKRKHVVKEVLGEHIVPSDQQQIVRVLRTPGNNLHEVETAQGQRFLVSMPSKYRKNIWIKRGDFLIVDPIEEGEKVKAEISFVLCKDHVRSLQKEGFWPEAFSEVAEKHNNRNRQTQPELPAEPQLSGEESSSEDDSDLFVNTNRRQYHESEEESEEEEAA
proteins of U3A human fibrosarcoma cells (4462 proteins detected) (Homo sapiens, UniProt Q15366), sequence (Q15366 whole entry): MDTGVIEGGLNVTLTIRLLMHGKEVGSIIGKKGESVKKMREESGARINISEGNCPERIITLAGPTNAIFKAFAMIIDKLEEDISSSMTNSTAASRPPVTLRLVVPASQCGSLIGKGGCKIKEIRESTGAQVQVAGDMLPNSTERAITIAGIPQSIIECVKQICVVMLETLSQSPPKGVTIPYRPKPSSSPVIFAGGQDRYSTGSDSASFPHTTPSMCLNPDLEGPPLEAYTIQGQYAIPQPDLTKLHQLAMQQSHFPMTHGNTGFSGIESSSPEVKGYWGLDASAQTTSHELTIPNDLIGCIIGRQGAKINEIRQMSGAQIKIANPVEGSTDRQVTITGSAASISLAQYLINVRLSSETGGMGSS
proteins of U3A human fibrosarcoma cells (4462 proteins detected) (Homo sapiens, UniProt Q9UHN1), sequence (Q9UHN1 whole entry): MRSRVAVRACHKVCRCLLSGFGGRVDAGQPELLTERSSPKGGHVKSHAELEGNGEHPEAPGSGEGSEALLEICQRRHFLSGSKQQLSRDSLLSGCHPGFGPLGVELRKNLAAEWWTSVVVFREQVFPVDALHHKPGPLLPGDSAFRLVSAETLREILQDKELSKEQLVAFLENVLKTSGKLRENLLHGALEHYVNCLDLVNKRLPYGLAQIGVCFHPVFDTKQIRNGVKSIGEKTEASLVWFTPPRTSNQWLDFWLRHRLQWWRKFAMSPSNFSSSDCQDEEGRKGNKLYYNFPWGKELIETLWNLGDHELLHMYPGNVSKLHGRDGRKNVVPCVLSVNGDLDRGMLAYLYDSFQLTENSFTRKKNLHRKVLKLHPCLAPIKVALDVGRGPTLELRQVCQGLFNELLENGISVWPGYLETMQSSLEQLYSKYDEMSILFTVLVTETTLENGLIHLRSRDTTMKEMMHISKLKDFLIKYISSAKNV
proteins of U3A human fibrosarcoma cells (4462 proteins detected) (Homo sapiens, UniProt P20839), sequence (P20839 whole entry): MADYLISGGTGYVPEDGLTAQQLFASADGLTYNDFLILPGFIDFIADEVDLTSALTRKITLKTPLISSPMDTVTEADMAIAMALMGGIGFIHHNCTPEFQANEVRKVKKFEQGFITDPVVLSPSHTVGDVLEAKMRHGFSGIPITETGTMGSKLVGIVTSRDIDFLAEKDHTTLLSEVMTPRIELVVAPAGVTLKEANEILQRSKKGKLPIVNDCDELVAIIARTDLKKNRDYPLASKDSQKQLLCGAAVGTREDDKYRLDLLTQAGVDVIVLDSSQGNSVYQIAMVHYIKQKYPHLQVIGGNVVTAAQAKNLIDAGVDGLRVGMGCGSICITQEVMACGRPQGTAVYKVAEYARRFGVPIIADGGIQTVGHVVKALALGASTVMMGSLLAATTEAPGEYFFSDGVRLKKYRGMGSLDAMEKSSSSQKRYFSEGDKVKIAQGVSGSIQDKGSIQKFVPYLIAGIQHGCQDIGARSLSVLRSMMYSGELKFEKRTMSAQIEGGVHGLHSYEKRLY

`CCc1nc(N)nc(N)c1-c1ccc(Cl)cc1` [pyrimethamine] was tested, and the “Log2 (PYR/DMSO)” value [1] was 0.20, the “Log2 (PYR/DMSO), EIF5A2” value [2] was -0.18 and the “Log2 (PYR/DMSO), EIF1AD” value [3] was -0.14. The “Log2 (PYR/DMSO)” value [4] was 0.18, the “Log2 (PYR/DMSO)” value [5] was 0.17 and the “Log2 (PYR/DMSO)” value [6] was 0.15. The “Log2 (PYR/DMSO)” value [7] was 0.15, the “Log2 (PYR/DMSO)” value [8] was -0.04 and the “Log2 (PYR/DMSO)” value [9] was 0.15. For the same molecule, the “Log2 (PYR/DMSO)” value [10] was 0.16, the “Log2 (PYR/DMSO), DDX54” value [11] was 0.25 and the “Log2 (PYR/DMSO)” value [12] was 0.13. The “Log2 (PYR/DMSO)” value [13] was 0.22, the “Log2 (PYR/DMSO)” value [14] was 0.14 and the “Log2 (PYR/DMSO)” value [15] was -0.05. For the same molecule, the “Log2 (PYR/DMSO)” value [16] was 0.14, the “Log2 (PYR/DMSO), CNOT7” value [17] was -0.24 and the “Log2 (PYR/DMSO)” value [18] was -0.04. For the same molecule, the “Log2 (PYR/DMSO)” value [19] was 0.17, the “Log2 (PYR/DMSO)” value [20] was 0.21 and the “Log2 (PYR/DMSO), SNX16” value [21] was -0.18. The “Log2 (PYR/DMSO)” value [22] was -0.04, the “Log2 (PYR/DMSO)” value [23] was 0.19 and the “Log2 (PYR/DMSO)” value [24] was -0.04. For the same molecule, the “Log2 (PYR/DMSO)” value [25] was 0.22, the “Log2 (PYR/DMSO)” value ([26]; protein AGO2, AGO1, AGO3, AGO4, soluble abundance after heat, U3A cells) was 0.14 and the “Log2 (PYR/DMSO), ANXA8L1; ANXA8L2; ANXA8” value ([26]; protein ANXA8L1, ANXA8L2, ANXA8, U3A, 10 μM, 2 h) was -0.40. For the same molecule, the “Log2 (PYR/DMSO), ATP2A2; ATP2A1; ATP2A3” value ([26]; protein ATP2A2, ATP2A1, ATP2A3, U3A, 10 μM, 2 h) was 0.28, the “Log2 (PYR/DMSO)” value ([26]; protein CUX1, U3A cells) was 0.20 and the “Log2 (PYR/DMSO)” value ([26]; protein DHRS4, DHRS4L1, soluble abundance after heat, U3A cells) was 0.13. The “Log2 (PYR/DMSO)” value ([26]; protein EIF3C, EIF3CL, U3A cells) was 0.18, the “Log2 (PYR/DMSO)” value ([26]; protein Em:AP000351.3, GSTT2, GSTT2B, U3A cells) was -0.05 and the “Log2 (PYR/DMSO)” value ([26]; protein H2AFX, HIST1H2AJ, HIST1H2AH, H2AFJ, HIST2H2AC, HIST1H2AC, HIST3H2A, HIST2H2AA3, HIST1H2AD, HIST1H2AG, HIST1H2AB, HIST1H2AA, HIST2H2AB, U3A cells) was 0.19. The “Log2 (PYR/DMSO)” value ([26]; protein HIST2H3A, HIST3H3, HIST1H3A, H3F3B, H3F3A, HIST2H3PS2, H3F3C, U3A cells) was 0.22, the “Log2 (PYR/DMSO)” value ([26]; protein HPCAL1, HPCA, soluble abundance after heat, U3A cells) was 0.15 and the “Log2 (PYR/DMSO)” value ([26]; protein KHDRBS1, KHDRBS2, soluble abundance after heat, U3A cells) was 0.14. For the same molecule, the “Log2 (PYR/DMSO), KIAA2012; SPEG” value ([26]; protein KIAA2012, SPEG, U3A, 10 μM, 2 h) was 0.26, the “Log2 (PYR/DMSO)” value ([26]; protein MOCS2, U3A cells) was -0.04 and the “Log2 (PYR/DMSO)” value ([26]; protein POLR2J3, POLR2J, POLR2J2, U3A cells) was -0.04. The “Log2 (PYR/DMSO)” value ([26]; protein POM121C, POM121, POMZP3, soluble abundance after heat, U3A cells) was 0.14, the “Log2 (PYR/DMSO)” value ([26]; protein PPP1R2, PPP1R2P3, U3A cells) was -0.04 and the “Log2 (PYR/DMSO), PRSS1; PRSS3P2; PRSS2” value ([26]; protein PRSS1, PRSS3P2, PRSS2, U3A, 10 μM, 2 h) was -0.20. The “Log2 (PYR/DMSO), SLC25A5; SLC25A4; SLC25A6; SLC25A31” value ([26]; protein SLC25A5, SLC25A4, SLC25A6, SLC25A31, U3A, 10 μM, 2 h) was 0.31, the “Log2 (PYR/DMSO)” value ([26]; protein UBE2Q1, UBE2Q2, U3A cells) was 0.20 and the “Log2 (PYR/DMSO)” value [27] was -0.03.
